Tested on: KRAS PDC multicell spheroid viability
Assay: Anticancer human tumor 825966-067-R-J1-PDC patient-derived colon carcinoma cell line growth inhibition [KRAS2]
Details: for IC50: curve of first compound; for viability, T/C: stronger effect = lower value
Procedure, shortened: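 Combination screen of spheroid viability in tumor-cell co-cultures with endothelial (HUVEC) and mesenchymal stem cell stroma. Each agent was tested in half-log dilutions, topping at clinical Cmax or at 10 microM without a known Cmax.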

[1] = second compound 0.1 µM, first compound 0.01 µM
[2] = second compound 0.1 µM, first compound 0.0316 µM
[3] = second compound 0.1 µM, first compound 0.1 µM
[4] = second compound 0.1 µM, first compound 0.316 µM
[5] = second compound 0.1 µM, first compound 1 µM
[6] = second compound 0.1 µM, first compound 3.16 µM
[7] = second compound 0.316 µM, first compound 0.01 µM
[8] = second compound 0.316 µM, first compound 0.0316 µM
[9] = second compound 0.316 µM, first compound 0.1 µM
[10] = second compound 0.316 µM, first compound 0.316 µM
[11] = second compound 0.316 µM, first compound 1 µM
[12] = second compound 0.316 µM, first compound 3.16 µM
[13] = second compound 1 µM, first compound 0.01 µM
[14] = second compound 1 µM, first compound 0.0316 µM
[15] = second compound 1 µM, first compound 0.1 µM
[16] = second compound 1 µM, first compound 0.316 µM
[17] = second compound 1 µM, first compound 1 µM
[18] = second compound 1 µM, first compound 3.16 µM
[19] = second compound 3.16 µM, first compound 0.01 µM
[20] = second compound 3.16 µM, first compound 0.0316 µM
[21] = second compound 3.16 µM, first compound 0.1 µM
[22] = second compound 3.16 µM, first compound 0.316 µM
[23] = second compound 3.16 µM, first compound 1 µM
[24] = second compound 3.16 µM, first compound 3.16 µM
[25] = second compound 10 µM, first compound 0.01 µM
[26] = second compound 10 µM, first compound 0.0316 µM
[27] = second compound 10 µM, first compound 0.1 µM
[28] = second compound 10 µM, first compound 0.316 µM
[29] = second compound 10 µM, first compound 1 µM
[30] = second compound 10 µM, first compound 3.16 µM
[31] = second compound 0.1 µM, first compound 10 µM
[32] = second compound 0.316 µM, first compound 10 µM
[33] = second compound 1 µM, first compound 10 µM
[34] = second compound 3.16 µM, first compound 10 µM
[35] = second compound 10 µM, first compound 10 µM
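Further: spheroids exposed to compounds for 7 days.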
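Wherever viability, T/C is given: 100% = DMSO vehicle control viability.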

| Compound | IC50 (second compound 0.1 µM) [nM] | IC50 (second compound 0.316 µM) [nM] | IC50 (second compound 1 µM) [nM] | IC50 (second compound 3.16 µM) [nM] | IC50 (second compound 10 µM) [nM] | viability, T/C [2] [%] | viability, T/C [3] [%] | viability, T/C [4] [%] | viability, T/C [5] [%] | viability, T/C [8] [%] | viability, T/C [9] [%] | viability, T/C [10] [%] | viability, T/C [11] [%] | viability, T/C [14] [%] | viability, T/C [15] [%] | viability, T/C [16] [%] | viability, T/C [17] [%] | viability, T/C [20] [%] | viability, T/C [21] [%] | viability, T/C [22] [%] | other results |
| --- | --- | --- | --- | --- | --- | --- | --- | --- | --- | --- | --- | --- | --- | --- | --- | --- | --- | --- | --- | --- | --- |
| CC1COCCN1c1cc(-c2ccnn2C)c2ccnc(-c3ccn[nH]3)c2n1 (stereo not given) + CNCc1ccccc1-c1csc(C(C)Nc2nc(C)nc3cc(OC)c(OC)cc23)c1 | 244 | 278 | 122 | < 10 | < 10 | 129 | 89.2 | 34.4 | 44.4 | 131 | 75.8 | 54 | 49.5 | 91.5 | 56.8 | 18.3 | 14.2 | 8.68 | 1.56 | 2.53 | viability, T/C [1]: 111%; viability, T/C [6]: 37.3%; viability, T/C [7]: 132%; viability, T/C [12]: 30.3%; viability, T/C [13]: 104%; viability, T/C [18]: 2.54%; viability, T/C [19]: 29.4%; viability, T/C [23]: 0.56%; viability, T/C [24]: 0.39%; viability, T/C [25]: 0.18%; viability, T/C [26]: 0.15%; viability, T/C [27]: 0.12%; viability, T/C [28]: 0.52%; viability, T/C [29]: 0.12%; viability, T/C [30]: 0.19% |
| CC1OCC2(CCN(c3cnc(Sc4ccnc(N)c4Cl)c(N)n3)CC2)C1N (stereo not given) + CNCc1ccccc1-c1csc(C(C)Nc2nc(C)nc3cc(OC)c(OC)cc23)c1 | 7620 | 6900 | 6710 | 1140 | < 31.6 | 109 | 107 | 101 | 94.3 | 84.8 | 107 | 107 | 88 | 113 | 99.9 | 94.4 | 96.4 | 96.4 | 36.9 | 92.7 | viability, T/C [6]: 101%; viability, T/C [31]: 34.4%; viability, T/C [12]: 105%; viability, T/C [32]: 26.8%; viability, T/C [18]: 109%; viability, T/C [33]: 22.1%; viability, T/C [23]: 30%; viability, T/C [24]: 49.9%; viability, T/C [34]: 0.35%; viability, T/C [26]: 0.28%; viability, T/C [27]: 0.27%; viability, T/C [28]: 0.35%; viability, T/C [29]: 0.24%; viability, T/C [30]: 0.22%; viability, T/C [35]: 0.25% |
| CCN1CCN(Cc2ccc(Nc3ncc(F)c(-c4cc(F)c5nc(C)n(C(C)C)c5c4)n3)nc2)CC1 + CNCc1ccccc1-c1csc(C(C)Nc2nc(C)nc3cc(OC)c(OC)cc23)c1 | > 1000 | > 1000 | 705 | 68 | < 3.16 | 126 | 137 | 174 | 123 | 115 | 129 | 176 | 78 | 154 | 173 | 147 | 10.1 | 88.5 | 30.9 | 0.29 | viability, T/C (second compound 0.1 µM, first compound 0.00316 µM): 98.2%; viability, T/C [1]: 99.1%; viability, T/C (second compound 0.316 µM, first compound 0.00316 µM): 101%; viability, T/C [7]: 128%; viability, T/C (second compound 1 µM, first compound 0.00316 µM): 111%; viability, T/C [13]: 122%; viability, T/C (second compound 3.16 µM, first compound 0.00316 µM): 110%; viability, T/C [19]: 127%; viability, T/C [23]: 0.27%; viability, T/C (second compound 10 µM, first compound 0.00316 µM): 0.26%; viability, T/C [25]: 0.29%; viability, T/C [26]: 0.22%; viability, T/C [27]: 0.18%; viability, T/C [28]: 0.15%; viability, T/C [29]: 0.22% |
| CCNC(=O)CC1N=C(c2ccc(Cl)cc2)c2cc(OC)ccc2-n2c(C)nnc21 (stereo not given) + CNCc1ccccc1-c1csc(C(C)Nc2nc(C)nc3cc(OC)c(OC)cc23)c1 | > 10000 | > 10000 | > 10000 | < 31.6 | < 31.6 | 90.3 | 113 | 118 | 91.4 | 112 | 113 | 120 | 90.9 | 117 | 113 | 122 | 111 | 27.8 | 0.64 | 0.53 | viability, T/C [6]: 82.2%; viability, T/C [31]: 65%; viability, T/C [12]: 83.1%; viability, T/C [32]: 71.5%; viability, T/C [18]: 96.6%; viability, T/C [33]: 51.1%; viability, T/C [23]: 0.19%; viability, T/C [24]: 2.33%; viability, T/C [34]: 0.59%; viability, T/C [26]: 0.15%; viability, T/C [27]: 0.15%; viability, T/C [28]: 0.17%; viability, T/C [29]: 0.16%; viability, T/C [30]: 0.14%; viability, T/C [35]: 0.37% |
| Cn1nccc1Nc1nccc(-c2cc3c(s2)C(C)(C)N(CCN2CCOCC2)C3=O)n1 + CNCc1ccccc1-c1csc(C(C)Nc2nc(C)nc3cc(OC)c(OC)cc23)c1 | > 10000 | > 10000 | 5040 | 53.1 | < 31.6 | 108 | 96.9 | 123 | 125 | 94.8 | 103 | 137 | 75.6 | 118 | 137 | 134 | 98.1 | 78 | 13.4 | 12.4 | viability, T/C [6]: 96.1%; viability, T/C [31]: 82.3%; viability, T/C [12]: 82.2%; viability, T/C [32]: 75.8%; viability, T/C [18]: 66.8%; viability, T/C [33]: 29%; viability, T/C [23]: 0.56%; viability, T/C [24]: 0.23%; viability, T/C [34]: 0.47%; viability, T/C [26]: 0.39%; viability, T/C [27]: 0.21%; viability, T/C [28]: 0.16%; viability, T/C [29]: 0.16%; viability, T/C [30]: 2.28%; viability, T/C [35]: 0.24% |
| CC(=O)OC12COC1CC(O)C1(C)C(=O)C(O)C3=C(C)C(OC(=O)C(O)C(NC(=O)OC(C)(C)C)c4ccccc4)CC(O)(C(OC(=O)c4ccccc4)C21)C3(C)C (stereo not given) + COc1cc2nc(C)nc(NC(C)c3cc(N)cc(C(F)(F)F)c3)c2cc1OC1CCOC1 | < 10 | < 10 | < 10 | < 10 | < 10 | 24.6 | 35.8 | 17.3 | 26.8 | 29.3 | 23.1 | 38.4 | 24 | 29.3 | 27.6 | 18.7 | 24.7 | 13.4 | 29.2 | 16.4 | viability, T/C [1]: 18.9%; viability, T/C [6]: 34.5%; viability, T/C [7]: 23.8%; viability, T/C [12]: 44%; viability, T/C [13]: 16.9%; viability, T/C [18]: 29.6%; viability, T/C [19]: 16.6%; viability, T/C [23]: 21.3%; viability, T/C [24]: 25.1%; viability, T/C [25]: 11.7%; viability, T/C [26]: 15%; viability, T/C [27]: 19.3%; viability, T/C [28]: 14.2%; viability, T/C [29]: 20.9%; viability, T/C [30]: 12.4% |
